Measurements reported in BindingDB's records for doi:10.1016/0014-2999(93)90076-T (University of North Carolina, 1993).

The molecules below were run against T1, D1 dopamine receptor (Macaca fascicularis, UniProt Q5I6B7).
T1 sequence (Q5I6B7 whole entry): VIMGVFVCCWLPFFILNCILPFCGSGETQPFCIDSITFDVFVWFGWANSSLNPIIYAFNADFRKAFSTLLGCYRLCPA

Ki [nM]	Structure (SMILES)
1.3	CN1CCc2cc(Cl)c(O)cc2[C@@H](c2ccccc2)C1 [SCH 23390,R(+)]
106	Oc1cc2c(cc1O)[C@@H](c1ccccc1)CNCC2

Structure (SMILES)	Ki [nM]
Oc1cc2c(cc1O)[C@@H]1c3ccccc3CN[C@@H]1CC2 [(+/-)-trans-10,11-dihydroxy-5,6,6a,7,8,12b-hexahydrobenzo[a]phenanthridine]	20.2
